Literature values in patent US12054562B2, “Cell-permeable inhibitory agent and methods of use thereof in treatment of cognitive and mood disorders” (priority 2015, dated 2024).

Tests used:
α5GABAA receptor [1] = target: T1, α5GABAA receptor (Homo sapiens, UniProt P18507+P31644); settings: cited from earlier work
T1 sequence (P31644 32-462): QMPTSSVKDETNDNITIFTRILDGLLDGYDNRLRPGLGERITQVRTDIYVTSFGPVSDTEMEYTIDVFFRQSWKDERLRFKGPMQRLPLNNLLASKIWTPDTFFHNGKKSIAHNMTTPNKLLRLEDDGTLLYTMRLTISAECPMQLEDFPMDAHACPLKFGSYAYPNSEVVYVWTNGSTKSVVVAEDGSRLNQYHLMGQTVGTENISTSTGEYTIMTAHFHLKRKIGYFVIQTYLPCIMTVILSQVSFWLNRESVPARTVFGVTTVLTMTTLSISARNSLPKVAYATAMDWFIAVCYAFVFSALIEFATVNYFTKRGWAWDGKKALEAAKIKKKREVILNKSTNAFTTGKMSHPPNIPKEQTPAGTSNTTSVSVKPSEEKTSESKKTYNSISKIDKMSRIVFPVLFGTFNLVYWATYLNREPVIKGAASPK
T1 sequence (P18507 40-467 limits assumed): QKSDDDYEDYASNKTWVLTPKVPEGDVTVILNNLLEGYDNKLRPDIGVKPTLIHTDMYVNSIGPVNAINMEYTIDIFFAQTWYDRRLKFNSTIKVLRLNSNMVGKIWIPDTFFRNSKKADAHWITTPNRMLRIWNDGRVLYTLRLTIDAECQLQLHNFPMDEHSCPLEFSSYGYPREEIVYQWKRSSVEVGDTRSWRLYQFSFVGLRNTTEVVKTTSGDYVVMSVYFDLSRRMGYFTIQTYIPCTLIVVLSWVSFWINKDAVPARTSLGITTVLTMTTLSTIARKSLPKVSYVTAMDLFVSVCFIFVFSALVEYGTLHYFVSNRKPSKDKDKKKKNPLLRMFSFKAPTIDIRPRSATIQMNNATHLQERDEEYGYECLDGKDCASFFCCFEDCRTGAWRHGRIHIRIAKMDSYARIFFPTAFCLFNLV
T1 sequence (P28472 26-473 partner): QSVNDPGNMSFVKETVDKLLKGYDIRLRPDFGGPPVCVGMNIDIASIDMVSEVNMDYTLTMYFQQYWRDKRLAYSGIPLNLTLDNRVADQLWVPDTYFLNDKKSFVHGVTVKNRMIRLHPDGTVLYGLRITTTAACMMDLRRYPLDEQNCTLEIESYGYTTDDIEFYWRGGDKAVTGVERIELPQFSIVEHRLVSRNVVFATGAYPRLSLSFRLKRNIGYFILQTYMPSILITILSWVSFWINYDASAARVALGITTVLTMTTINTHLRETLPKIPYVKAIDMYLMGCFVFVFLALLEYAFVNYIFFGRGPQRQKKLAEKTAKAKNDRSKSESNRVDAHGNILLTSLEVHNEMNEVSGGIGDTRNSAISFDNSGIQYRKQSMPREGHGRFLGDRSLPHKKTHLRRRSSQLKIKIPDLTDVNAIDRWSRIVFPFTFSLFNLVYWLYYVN

α5GABAA receptor [2] = target: T1, α5GABAA receptor; settings: cited from earlier work; remark: listed apart in the source

SMILES: CCOC(=O)c1ncn2c1[C@@H]1CCCN1C(=O)c1cc(OC)ccc1-2 [L-655,708]
- selectivity for α5GABAA receptors (α5GABAA receptor [1]): 30-70 fold
- efficacy for reducing α5GABAA receptor function (α5GABAA receptor [2]): relatively low efficacy
